pIC50: −log10 of the molar value.

Common to all, as to assay type: biochemical
One experiment concerns the target T1, Calpain I (Homo sapiens, UniProt P07384).
T1 construct: made in house
T1 sequence (P07384 1-714): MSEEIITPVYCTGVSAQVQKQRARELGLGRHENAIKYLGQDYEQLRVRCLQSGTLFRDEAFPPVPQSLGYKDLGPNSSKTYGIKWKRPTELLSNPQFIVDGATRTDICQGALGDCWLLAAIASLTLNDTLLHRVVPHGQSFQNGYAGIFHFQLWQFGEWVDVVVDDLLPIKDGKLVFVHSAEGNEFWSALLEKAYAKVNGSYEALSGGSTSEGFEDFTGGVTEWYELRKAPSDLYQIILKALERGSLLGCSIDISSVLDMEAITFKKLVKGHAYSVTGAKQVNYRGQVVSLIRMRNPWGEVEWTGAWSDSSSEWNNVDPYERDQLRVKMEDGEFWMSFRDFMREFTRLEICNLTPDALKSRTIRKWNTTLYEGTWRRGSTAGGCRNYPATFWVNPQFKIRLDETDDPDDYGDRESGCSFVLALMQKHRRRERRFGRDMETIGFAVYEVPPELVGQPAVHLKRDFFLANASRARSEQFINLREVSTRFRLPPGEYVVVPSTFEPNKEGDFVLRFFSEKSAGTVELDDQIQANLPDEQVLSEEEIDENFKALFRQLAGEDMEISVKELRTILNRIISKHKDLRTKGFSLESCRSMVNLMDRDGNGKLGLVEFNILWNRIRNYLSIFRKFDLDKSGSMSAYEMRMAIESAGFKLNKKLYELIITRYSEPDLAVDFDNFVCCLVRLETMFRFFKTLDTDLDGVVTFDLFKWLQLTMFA
T1 sequence (P04632 1-268 partner): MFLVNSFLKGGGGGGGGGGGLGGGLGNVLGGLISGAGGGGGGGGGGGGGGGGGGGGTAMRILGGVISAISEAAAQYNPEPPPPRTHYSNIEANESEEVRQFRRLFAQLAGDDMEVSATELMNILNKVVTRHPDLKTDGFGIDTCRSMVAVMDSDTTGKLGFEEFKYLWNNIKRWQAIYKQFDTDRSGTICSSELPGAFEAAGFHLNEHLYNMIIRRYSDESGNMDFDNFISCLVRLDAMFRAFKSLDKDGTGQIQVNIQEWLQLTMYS
Kind of experiment: Inhibition of calpain I activity (IC50, fluorescence plate reader). The following applies: substrate 0.2 mM Succ-Leu-Tyr-MNA, pH 7.5. How it is done: (§1) To evaluate inhibitory activity, stock solutions (40 times concentrated) of each compound to be tested were prepared in 100% anhydrous DMSO and 5 μL of each inhibitor preparation were aliquoted into each of three wells of a 96-well plate. Calpain I, prepared by a modification of the method of W. J. Lee et al. (Biochem. Internatl. 22: 163-171 (1990)), was diluted into assay buffer (i.e., 50 mM Tris, 50 mM NaCl, 1 mM EDTA, 1 mM EGTA, and 5 mM-mercaptoethanol, pH 7.5 including 0.2 mM Succ-Leu-Tyr-MNA) and 175 μL aliquoted into the same wells containing the independent inhibitor stocks as well as to positive control wells containing 5 μL DMSO, but no compound. To start the reaction, 20 μL of 50 mM CaCl2 in assay buffer was added to all wells of the plate, excepting three, which were used as background signal baseline controls. Substrate hydrolysis was monitored every 5 minutes for a total of 30 minutes using a Fluoroskan II fluorescence plate reader. Substrate hydrolysis in the absence of inhibitor was linear for up to 15 minutes.
Inhibition of calpain I activity was calculated as the percent decrease in the rate of substrate (S) hydrolysis in the presence of inhibitor (I) relative to the rate in its absence (o). Comparison between the inhibited and control rates was made within the linear range for substrate hydrolysis. For screening, compounds were tested at 10 μM. Compounds having 50% inhibition at 10 μM were considered active. The IC50s of inhibitors (concentration yielding 50% inhibition) were determined from the percent decrease in the rates of substrate hydrolysis in the presence of five to seven different concentrations of the test compound. The results were plotted as % inhibition versus log inhibitor concentration and the IC50 was calculated from linear regression of the data. Apparent second order rate constants were determined from analysis of reaction progress curves under pseudo-first order conditions. Each determination represents the means of three or more independent single cuvette analyses continually monitored via a Perkin-Elmer LS50B spectrofluorimeter. The rate of inhibition of hydrolysis was obtained by fitting the curve to the exponential equation (1): […]

Another experiment addresses T2, thrombin (Homo sapiens, UniProt P00734).
T2 construct: purchased Sigma Chem. Co. T-7009
As to the kind of experiment: Inhibition of thrombin. As to conditions: 25 μM Bz-Phe-Val-Arg-AMC; for Thrombin % I @ 10 uM: pH 7.5; for inhibition at 10 µM: pH 7.5, read-out: Thrombin % I @ 10 uM. How it is done:
as §1
(§2) Inhibition of calpain I activity was calculated as the percent decrease in the rate of substrate (S) hydrolysis in the presence of inhibitor (I) relative to the rate in its absence (o). Comparison between the inhibited and control rates was made within the linear range for substrate hydrolysis. For screening, compounds were tested at 10 μM. Compounds having 50% inhibition at 10 μM were considered active. The IC50s of inhibitors (concentration yielding 50% inhibition) were determined from the percent decrease in the rates of substrate hydrolysis in the presence of five to seven different concentrations of the test compound. The results were plotted as % inhibition versus log inhibitor concentration and the IC50 was calculated from linear regression of the data. Apparent second order rate constants were determined from analysis of reaction progress curves under pseudo-first order conditions. Each determination represents the means of three or more independent single cuvette analyses continually monitored via a Perkin-Elmer LS50B spectrofluorimeter. The rate of inhibition of hydrolysis was obtained by fitting the curve to the exponential equation (1):
(§3) Additionally, because α-chymotrypsin is not a calcium sensitive enzyme and is constitutively active, following addition of inhibitor stocks to the 96 well plates, 100 μl of a 2-fold concentrated stock of enzyme in dilution buffer was first added and the reaction started by addition of 100 μl of a 2-fold concentrated stock of substrate in assay buffer. Substrate hydrolysis was monitored every 5 minutes up to 30 minutes using a Fluoroskan II ([…]).
Inhibition of thrombin (Sigma Chem. Co. Cat. #T-7009) was evaluated as described for chymotrypsin except that the assay was performed in 50 mM Tris, 10 mM CaCl2, pH 7.5 and the substrate was 25 μM Bz-Phe-Val-Arg-AMC (Bachem cat#I-1080).

The next experiment addresses T3, cathepsin L (Homo sapiens, UniProt P07711).
T3 construct: purchased Calbiochem 219402
Kind of experiment: Inhibition of cathepsin L. The following applies: Cbz-Phe-Arg-AMC 0.006 mM; for Cat L % I @ 1 uM: pH 6.0; for inhibition at 1 µM: pH 6, 1 uM, read-out: Cat L % I @ 1 uM.

The target in a further experiment is T4, cathepsin B (Homo sapiens, UniProt P07858).
T4 construct: purchased Calbiochem 219364
Kind of experiment: Inhibition of cathepsin B. As to conditions: Cbz-Phe-Arg-AMC 0.1 mM; for Cat B % I @ 1 uM: pH 6.0; for inhibition at 1 µM: pH 6, 1 uM, read-out: Cat B % I @ 1 uM.

A further experiment deals with T5, α-chymotrypsin (Bos taurus, UniProt P00766).
T5 construct: purchased Sigma Chem. Co. C-3142
Kind of experiment: Inhibition of α-chymotrypsin. The following applies: 0.03 mM Succ-Ala-Ala-Pro-Phe-AMC; for Chymotrypsin % I @: 10 μM, pH 7.5; for inhibition at 10 µM: pH 7.5, 10 μM, read-out: Chymotrypsin % I @. How it is done:
as §1, §2, §3

T3 sequence (P07711 114-288 limits assumed): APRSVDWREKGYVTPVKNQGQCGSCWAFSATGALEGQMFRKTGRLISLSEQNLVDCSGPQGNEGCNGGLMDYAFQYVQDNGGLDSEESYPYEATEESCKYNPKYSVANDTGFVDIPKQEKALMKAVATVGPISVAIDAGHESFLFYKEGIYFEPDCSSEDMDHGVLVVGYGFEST
T3 sequence (P07711 292-333 limits assumed): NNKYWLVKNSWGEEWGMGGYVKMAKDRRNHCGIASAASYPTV

Consider `CC(C)CC(CC(=O)CN(CC(C)C)C(=O)OCc1ccccc1)C(=O)N[C@H](C=O)CC(C)C` (stereo partly shown) [Compound 32, Z-N(iBu)CH2 COCH2 CH(iBu)CON H-Leu-H], for which the pIC50 at Calpain I was 7.15.

Consider `CC(C)CC(CC(=O)N1CCc2ccccc2C1)C(=O)N[C@H](C=O)Cc1ccccc1` (single isomer, unassigned) [Compound 16f-II, 2-THIQ-COCH2 CH(iBu)CO-Phe-H (Diastereomer)], for which the “Thrombin % I @ 10 uM” value on thrombin amounted to 0%. The pIC50 at Calpain I is 6.00. In addition, the “Cat L % I @ 1 uM” value at cathepsin L is 52%. The “Cat B % I @ 1 uM” value at cathepsin B is reported as 71%. Also, the “Chymotrypsin % I @” value at α-chymotrypsin amounted to 12%.

As to `CCNC(=O)C(=O)C(CC)NC(=O)C(CC(=O)[C@@H](CC)c1ccccc1)CC(C)C` (stereo partly shown) [Compound 8b, CH3 CH2 CH(Ph)COCH2 CH(iBu)CO-Abu-CONHEt], the inhibition at 10 µM at thrombin and at α-chymotrypsin was 0% throughout. Besides, at Calpain I, the pIC50 is 5.17. In addition, the values for the inhibition at 1 µM at cathepsin L and at cathepsin B were 98% and 84%, respectively.

As to `CC(C)CC(CC(=O)N1CCN(c2ccccc2)CC1)C(=O)N[C@H](C=O)CC(C)C` (single isomer, unassigned) [Compound 16g-I, Ph-Piperazine-COCH2 CH(iBu)CO-Leu-H], the inhibition at 10 µM on thrombin and on α-chymotrypsin was 0% throughout. In addition, the pIC50 on Calpain I is 6.64. Besides, on cathepsin L, the “Cat L % I @ 1 uM” value is recorded as 97%. Moreover, on cathepsin B, the “Cat B % I @ 1 uM” value was 100%.

`CCC(C(=O)CC(CC(C)C)C(=O)N[C@H](C=O)CC(C)C)c1ccccc1` (stereo partly shown) [Compound 16b, CH3 CH2 CH(Ph)COCH2 CH(iBu)CO-Leu-H]: the inhibition at 10 µM amounted to 0% on thrombin and 21% on α-chymotrypsin. The same compound had a pIC50 against Calpain I of 7.26. Besides, the inhibition at 1 µM at cathepsin L was determined as 100%; at cathepsin B it was 99%.

Take `CC(C)CC(CC(=O)N1CCN(c2ccccc2)CC1)C(=O)N[C@H](C=O)CC(C)C` (single isomer, unassigned) [Compound 16g-II, Ph-Piperazine-COCH2 CH(iBu)CO-Leu-H]: at thrombin, the “Thrombin % I @ 10 uM” value turned out to be 0%. The compound also showed a pIC50 at Calpain I of 5.35. Also, the “Cat L % I @ 1 uM” value at cathepsin L is reported as 35%. The “Cat B % I @ 1 uM” value on cathepsin B worked out at 67%. At α-chymotrypsin, the “Chymotrypsin % I @” value turned out to be 0%.

With `CC(C)CC(CC(=O)CCCCc1ccccc1)C(=O)N[C@H](C=O)CC(C)C` (stereo partly shown) [Compound 16a, Ph(CH2)4 COCH2 CH(iBu)CO-Leu-H], the results for the inhibition at 10 µM at thrombin and at α-chymotrypsin were 0% and 61%, respectively. For the same compound, the inhibition at 1 µM on cathepsin L came to 100%; at cathepsin B, 97%.

Take `CC(C)CC(CC(=O)C(c1ccccc1)c1ccccc1)C(=O)N[C@H](C=O)CC(C)C` (stereo partly shown) [Compound 16c, Ph2 CHCOCH2 CH(iBu)CO-Leu-H]: the inhibition at 10 µM worked out at 1% on thrombin and 62% on α-chymotrypsin. In addition, the pIC50 against Calpain I is 7.30. Moreover, the results for the inhibition at 1 µM at cathepsin L and on cathepsin B were 100% and 97%, respectively.

For the compound `CC(C)CC(CC(=O)N1CCc2ccccc2C1)C(=O)N[C@H](C=O)Cc1ccccc1` (single isomer, unassigned) [Compound 16f-I, 2-THIQ-COCH2 CH(iBu)Cd-Phe-H], the inhibition at 10 µM at thrombin amounted to 0%. At Calpain I, the pIC50 was 7.55. Besides, the “Cat L % I @ 1 uM” value at cathepsin L is reported as 96%. In addition, the “Cat B % I @ 1 uM” value on cathepsin B is listed as 100%. The “Chymotrypsin % I @” value at α-chymotrypsin worked out at 39%.

Regarding `CCNC(=O)C(=O)C(CC(C)C)NC(=O)C(CC(=O)C1c2ccccc2Oc2ccccc21)CC(C)C` (stereo not shown) [Compound 8f, Xanthene-CO(CH2 CH(iBu)CO-Leu-CONHEt], the results for the inhibition at 10 µM at thrombin and on α-chymotrypsin were 13% and 93%, respectively. The pIC50 on Calpain I is 6.89. In addition, the inhibition at 1 µM was determined as 100% on cathepsin L and 98% at cathepsin B.

With `CC(C)CC(CC(=O)C1c2ccccc2Oc2ccccc21)C(=O)N[C@H](C=O)CC(C)C` (stereo partly shown) [Compound 16d, Xanthene-COCH2 CH(iBu)CO-Leu-H], the inhibition at 10 µM was 25% at thrombin and 98% at α-chymotrypsin. In addition, the values for the inhibition at 1 µM on cathepsin L and at cathepsin B were 100% and 76%, respectively.

What is called pIC50 is −log10 of the IC50, conventionally taken in molar units. A low value points to a high IC50.

Values taken from patent publication US6329377A, “Ketomethylene group-containing cysteine and serine protease inhibitors” (Cephalon, Inc., priority 2000, dated 2001).
